Results as given in patent US12285459B2, “Saposin-A derived peptides and uses thereof” (CHILDREN'S MEDICAL CENTER CORPORATION, priority 2011, dated 2025).
Entries after “also recorded” stand apart in the source; their conditions may differ.

How the values were obtained:
[1] = system: Tsp-1 expression in Gr1+ cells; experiment: Tsp-1 in Gr1+ cells in lungs of mice given PC3M-LN4 CM plus peptide; format: in vivo, C57BL/6J mice
Description: CM from PC3M-LN4 cells cultured in serum-free medium for 24 hours was harvested, centrifuged and filtered through […] pore-size filters to remove any cells or cell debris. Wild-type C57BL/6J mice were treated with 200 μL serum-free conditioned media from PC3M-LN4 cells daily for 6 days via intraperitoneal (i.p.) injection in combination with DWLPK (SEQ ID NO: 4) peptide or scrambled peptide.
Animals were euthanized at the end of experiments and lungs were quickly perfused by injecting 5 ml of cold PBS through the right ventricle of the heart. One part of the lung from each animal was fixed in 3.7% formalin and the other part was sorted by flow cytometry for either protein or RNA extraction.
For microscopy, following formalin fixation, tissues were cryoembedded in Tissue-Tek O.C.T. embedding compound (Electron Microscopy Sciences). Sections (30 μm) were washed 3 times in PBS and incubated in blocking/permeabilization buffer (PBS+2 mM EDTA, 1% BSA, 1% Goat Serum, 0.05% Triton X-100). […]
Total RNA from flow cytometry sorted cells was extracted using the PicoPure RNA extraction kit (Arcturus) following the manufacturer's protocol. […] The relative abundance of each transcript compared with the control was calculated utilizing the delta-Ct method.

[2] = system: Tsp-1 in white blood cells; experiment: Tsp-1 protein in white blood cells of peptide-injected mice, Western blot; format: in vivo; settings: 5 day I.P. injections, 30 mg/kg
Description: Mice were injected with DWLPK (SEQ ID NO: 4) or a scramble peptide using 5 day I.P. injections with 30 mg/kg peptide. White blood cells were isolated, protein was extracted, and a Western blot was performed measuring Tsp-1 protein.

[3] = system: Lewis Lung Carcinoma cells; experiment: Lewis Lung Carcinoma tail vein lung metastasis model, bioluminescence; format: in vivo, C57Bl6 mice
Description: C57Bl6 mice were injected with 1×10^6 Lewis Lung Carcinoma cells via tail vein. After 10 days the animals were treated with either PBS or a peptide corresponding to residues 36-40 of saposin A at a dose of 30 mg/kg/day via i.p. injection. After 16 days of treatment all animals were sacrificed, lungs were weighed and harvested. Tissues were either fixed in NBF, or lysed and analyzed for Tsp-1 and p53 expression by western blot analysis.
1×10^6 luciferase-expressing LLC cells were then injected via tail vein into C57Bl6 mice. After 5 days the mice were treated with the 5-amino acid peptide at a dose of 30 mg/kg/day via i.p. injection. After 29 days the animals were sacrificed, at which point the average luciferase activity in the peptide treated mice, as measured by a Xeongoen IVIS system, was 2% that of the luciferase activity in mice treated with a scrambled peptide (FIG. 8).
For experimental metastasis, 7-week old C57BL/6 mice were injected via tail vein with 1×10^5 luciferase-labeled LLC cells. Metastatic growth was monitored over time using bioluminescence imaging performed with mice in a supine position 5 min after D-luciferin injection with a Xenogen IVIS system coupled to Living Image acquisition and analysis software (Xenogen). For BLI plots, photon flux was calculated for each mouse by using the same circular region of interest encompassing the thorax of the mouse.

[4] = system: PC3M-LN4 prostate cancer cells; experiment: Orthotopic PC3M-LN4 prostate tumor model; format: in vivo, SCID mice; settings: 30 mg/kg/day i.p. from day 26 for 16 days; PBS control
Description: C57Bl6 SCID mice were injected with 1×10^6 PC3M-LN4 prostate cancer cells in the prostate gland as described previously (Kang et al). After 26 days the animals were treated with either PBS or peptides corresponding to residues 36-40 or 36-39 of saposin A at a dose of 30 mg/kg/day via intraperitoneal (i.p.) injection. After 16 days of treatment all animals were sacrificed, prostate tumors were weighed and harvested, along with the lungs of animals. Tissues were either fixed in NBF, or lysed and analyzed for Tsp-1 and p53 expression by western blot analysis.
The peptides were then tested for their ability to inhibit tumor growth and metastasis in three models, the PC3M-LN4 prostate cancer model, the B16-B6 melanoma model and the Lewis Lung Carcinoma (LLC) model. 1×10^6 PC3M-LN4 cells were first injected into the prostate gland of SCID mice. After 26 days these mice were treated with either PBS alone or the 4- or 5-amino acid peptide at a dose of 30 mg/kg/day via i.p. injection. The mice were treated for 16 days after which the mice were examined the size of the tumors and the expression of Tsp-1 and p53 in the primary tumors and lungs of the animals. The tumors in animals treated with the 4- and 5-amino acid peptides were, on average, 45% and 40% the size of control animals, respectively (FIG. 6).

[5] = system: primary ovarian cancer cells; experiment: Intraperitoneal metastatic ovarian cancer model, bioluminescence; format: in vivo, CB-17 SCID mice; settings: 40 mg/kg QD from day 17; after 30 days
Description: For metastatic ovarian cancer cell injections, 5×10^6 viable primary ovarian cancer cells were injected into CB-17 SCID mice intraperitoneally in a volume of 0.1 ml. Tumor growth was monitored by live animal bioluminescence imaging (Xenogen) once per week. For in vivo determination of the metastatic burden, mice were anaesthetized and injected intraperitoneally with 75 mg/kg of D-luciferin (100 uL of 30 mg/mL in PBS). Metastatic growth was monitored over time using bioluminescence imaging performed with mice in a supine position 5 min after D-luciferin injection with a Xenogen IVIS system coupled to Living Image acquisition and analysis software (Xenogen). For BLI plots, photon flux was calculated for each mouse by using the same circular region of interest encompassing the abdomen of the mouse.
To determine whether DWLPK (SEQ ID NO: 4) could inhibit or regress existing ovarian metastases 5×10^6 primary ovarian cancer cells were injected intraperitoneally into SCID mice. After 17 days treatment was initiated with DWLPK (SEQ ID NO: 4) at a dose of 40 mg/kg QD, cisplatin at a dose of 2 mg/kg QOD, a combination of DWLPK (SEQ ID NO: 4) and cisplatin at the same doses, or PBS (control). It was observed that DWLPK (SEQ ID NO: 4) treatment completely regressed the metastases in 11/12 after 30 days and the regressed the metastases in the remaining mice by 99% (FIG. 20).

Substance: DWLPK [5-amino acid peptide corresponding to residues 36-40 of saposin A]
- recruitment of Gr1+ cells in the lungs ([1]; LN4 CM alone or in combination with peptide): identical regardless of the treatment
- Tsp-1 expression in the Gr1+ cells ([1]; LN4 CM daily for 6 days i.p. in combination with peptide): more than two fold
- Tsp-1 protein in white blood cells [2]: upregulated; also recorded: increased Tsp-1 expression
- average luciferase activity relative to mice treated with a scrambled peptide ([3]; 30 mg/kg/day i.p. from day 5, after 29 days, IVIS): 2%
- lung metastases by bioluminescence imaging ([3]; LLC-luc cells via tail vein, compared to scrambled peptide): dramatically reduced lung metastases
- prostate tumor size relative to control animals [4]: 40%
- mice with completely regressed metastases [5]: 11/12
- regression of the metastases in the remaining mice [5]: 99%
